# Test results published in ChEMBL document CHEMBL3885881, “DrugMatrix”.
# Species: Rattus norvegicus
# Assay: DrugMatrix - Regimen: Daily Repeat
# Type: toxicity, organism-based, Sprague-Dawley
# Set-up: regimen Daily Repeat, gender Male, age 6-8 weeks
# Conditions: in vivo, sc, route subcutaneous, […]; for ABSOLUTE BASOPHIL / ABSOLUTE EOSINOPHIL / ABSOLUTE LYMPHOCYTE / ABSOLUTE MONOCYTE / ABSOLUTE SEGMENTED NEUTROPHIL / BASOPHIL / EOSINOPHIL / ERYTHROCYTE COUNT / HEMATOCRIT / HEMOGLOBIN / LEUKOCYTE COUNT / LYMPHOCYTE / MEAN CORPUSCULAR HEMOGLOBIN / MEAN CORPUSCULAR HEMOGLOBIN CONCENTRATION / MEAN CORPUSCULAR VOLUME / MONOCYTE / NEUTROPHIL / NUCLEATED RED BLOOD CELLS / PLATELET COUNT: tissue Blood; for ALANINE AMINOTRANSFERASE / ALBUMIN / ALKALINE PHOSPHATASE / ASPARTATE AMINOTRANSFERASE / BLOOD UREA NITROGEN / CARBON DIOXIDE / CHLORIDE / CHOLESTEROL / CREATINE PHOSPHOKINASE / CREATININE / GLUCOSE / LACTATE DEHYDROGENASE / LIPASE / PHOSPHORUS / POTASSIUM / SODIUM / TOTAL BILIRUBIN / TOTAL PROTEIN / URIC ACID: tissue Plasma
# [1] = 0.8 mg/kg, 120 h, dose level Low, time 5 day
# [2] = 8 mg/kg, 72 h, dose level High, time 3 day
# [3] = 8 mg/kg, 120 h, dose level High, time 5 day
structure (smiles),measurement,setting,value
Oc1c(Cl)cc(Cl)c(Cl)c1Cc1c(O)c(Cl)cc(Cl)c1Cl [HEXACHLOROPHENE],ABSOLUTE BASOPHIL,[1],0 CELLS/uL
same,ABSOLUTE EOSINOPHIL,[1],0 CELLS/uL
same,ABSOLUTE LYMPHOCYTE,[1],15077 CELLS/uL
same,ABSOLUTE MONOCYTE,[1],281 CELLS/uL
same,ABSOLUTE SEGMENTED NEUTROPHIL,[1],1342 CELLS/uL
same,BASOPHIL,[1],0%
same,EOSINOPHIL,[1],0%
same,ERYTHROCYTE COUNT,[1],5.52 x10E6/uL
same,HEMATOCRIT,[1],35.07%
same,HEMOGLOBIN,[1],13.27 G/DL
same,LEUKOCYTE COUNT,[1],16.7 x10E3/uL
same,LYMPHOCYTE,[1],90.33%
same,MEAN CORPUSCULAR HEMOGLOBIN,[1],24.07 pg
same,MEAN CORPUSCULAR HEMOGLOBIN CONCENTRATION,[1],37.9 G/DL
same,MEAN CORPUSCULAR VOLUME,[1],63.53 fL
same,MONOCYTE,[1],1.67%
same,NEUTROPHIL,[1],8%
same,NUCLEATED RED BLOOD CELLS,[1],0 /100WBC
same,PLATELET COUNT,[1],1358.33 x10E3/uL
same,ALANINE AMINOTRANSFERASE,[1],45.33 u/L
same,ALBUMIN,[1],4.07 G/DL
same,ALKALINE PHOSPHATASE,[1],296.33 u/L
same,ASPARTATE AMINOTRANSFERASE,[1],78 u/L
same,BLOOD UREA NITROGEN,[1],15.67 mg/dL
same,CARBON DIOXIDE,[1],26.67 mmol/L
same,CHLORIDE,[1],104.67 MEQ/L
same,CHOLESTEROL,[1],74.67 mg/dL
same,CREATINE PHOSPHOKINASE,[1],237 u/L
same,CREATININE,[1],0.35 mg/dL
same,GLUCOSE,[1],154.33 mg/dL
same,LACTATE DEHYDROGENASE,[1],156 u/L
same,LIPASE,[1],11 u/L
same,PHOSPHORUS,[1],11.83 mg/dL
same,POTASSIUM,[1],6.6 MEQ/L
same,SODIUM,[1],144.67 MEQ/L
same,TOTAL BILIRUBIN,[1],0.13 mg/dL
same,TOTAL PROTEIN,[1],5.8 G/DL
same,URIC ACID,[1],1.47 mg/dL
same,ABSOLUTE BASOPHIL,[2],0 CELLS/uL
same,ABSOLUTE EOSINOPHIL,[2],49.67 CELLS/uL
same,ABSOLUTE LYMPHOCYTE,[2],12140.67 CELLS/uL
same,ABSOLUTE MONOCYTE,[2],337 CELLS/uL
same,ABSOLUTE SEGMENTED NEUTROPHIL,[2],1839.33 CELLS/uL
same,BASOPHIL,[2],0%
same,EOSINOPHIL,[2],0.33%
same,ERYTHROCYTE COUNT,[2],5.89 x10E6/uL
same,HEMATOCRIT,[2],36.63%
same,HEMOGLOBIN,[2],13.43 G/DL
same,LEUKOCYTE COUNT,[2],14.37 x10E3/uL
same,LYMPHOCYTE,[2],84.67%
same,MEAN CORPUSCULAR HEMOGLOBIN,[2],22.8 pg
same,MEAN CORPUSCULAR HEMOGLOBIN CONCENTRATION,[2],36.7 G/DL
same,MEAN CORPUSCULAR VOLUME,[2],62.27 fL
same,MONOCYTE,[2],2.33%
same,NEUTROPHIL,[2],12.67%
same,NUCLEATED RED BLOOD CELLS,[2],0 /100WBC
same,PLATELET COUNT,[2],1253 x10E3/uL
same,ALANINE AMINOTRANSFERASE,[2],52 u/L
same,ALBUMIN,[2],4.1 G/DL
same,ALKALINE PHOSPHATASE,[2],314.33 u/L
same,ASPARTATE AMINOTRANSFERASE,[2],87.67 u/L
same,BLOOD UREA NITROGEN,[2],16.67 mg/dL
same,CARBON DIOXIDE,[2],22.33 mmol/L
same,CHLORIDE,[2],105.33 MEQ/L
same,CHOLESTEROL,[2],87.33 mg/dL
same,CREATINE PHOSPHOKINASE,[2],258.67 u/L
same,CREATININE,[2],0.21 mg/dL
same,GLUCOSE,[2],187.33 mg/dL
same,LACTATE DEHYDROGENASE,[2],132 u/L
same,LIPASE,[2],9.67 u/L
same,PHOSPHORUS,[2],11.9 mg/dL
same,POTASSIUM,[2],5.67 MEQ/L
same,SODIUM,[2],146.53 MEQ/L
same,TOTAL BILIRUBIN,[2],0.17 mg/dL
same,TOTAL PROTEIN,[2],5.93 G/DL
same,URIC ACID,[2],2.47 mg/dL
same,ABSOLUTE BASOPHIL,[3],0 CELLS/uL
same,ABSOLUTE EOSINOPHIL,[3],154 CELLS/uL
same,ABSOLUTE LYMPHOCYTE,[3],13307.33 CELLS/uL
same,ABSOLUTE MONOCYTE,[3],238 CELLS/uL
same,ABSOLUTE SEGMENTED NEUTROPHIL,[3],1100.67 CELLS/uL
same,BASOPHIL,[3],0%
same,EOSINOPHIL,[3],1%
same,ERYTHROCYTE COUNT,[3],5.91 x10E6/uL
same,HEMATOCRIT,[3],35.87%
same,HEMOGLOBIN,[3],13.17 G/DL
same,LEUKOCYTE COUNT,[3],14.8 x10E3/uL
same,LYMPHOCYTE,[3],90%
same,MEAN CORPUSCULAR HEMOGLOBIN,[3],22.3 pg
same,MEAN CORPUSCULAR HEMOGLOBIN CONCENTRATION,[3],36.7 G/DL
same,MEAN CORPUSCULAR VOLUME,[3],60.8 fL
same,MONOCYTE,[3],1.67%
same,NEUTROPHIL,[3],7.33%
same,NUCLEATED RED BLOOD CELLS,[3],0 /100WBC
same,PLATELET COUNT,[3],1301.67 x10E3/uL
same,ALANINE AMINOTRANSFERASE,[3],46 u/L
same,ALBUMIN,[3],4 G/DL
same,ALKALINE PHOSPHATASE,[3],378.33 u/L
same,ASPARTATE AMINOTRANSFERASE,[3],85 u/L
same,BLOOD UREA NITROGEN,[3],16.33 mg/dL
same,CARBON DIOXIDE,[3],27.33 mmol/L
same,CHLORIDE,[3],104.67 MEQ/L
same,CHOLESTEROL,[3],70.33 mg/dL
same,CREATINE PHOSPHOKINASE,[3],346.67 u/L
same,CREATININE,[3],0.2 mg/dL
same,GLUCOSE,[3],174 mg/dL
same,LACTATE DEHYDROGENASE,[3],129.67 u/L
same,LIPASE,[3],9.33 u/L
same,PHOSPHORUS,[3],11.03 mg/dL
same,POTASSIUM,[3],5.65 MEQ/L
same,SODIUM,[3],146 MEQ/L
same,TOTAL BILIRUBIN,[3],0.2 mg/dL
same,TOTAL PROTEIN,[3],5.83 G/DL
same,URIC ACID,[3],1.63 mg/dL
